Data set [1] addresses T1, SARS-CoV-2 PL^pro (Severe acute respiratory syndrome coronavirus 2, UniProt P0DTD1). The note with it: cited from earlier work.
Data set [2] deals with T1, SARS-CoV-2 PL^pro. The experiment in a line: biochemical. The note with it: Ub-AMC substrate, 60 min incubation.
Data set [3] deals with T1, SARS-CoV-2 PL^pro. The data set is described as follows: biochemical. The note with it: for IC50: 60 min incubation.
The target in the next data set is MERS-CoV PL^pro (Middle East respiratory syndrome-related coronavirus, UniProt K9N7C7). The data set is described as follows: biochemical.
The target of data set [4] is T1, SARS-CoV-2 PL^pro. The experiment in a line: biochemical. The note with it: 50 nM protease; for Ki: read-out: Ki (binding affinity of initial reversible binding); for kinact: read-out: kinact (rate constant of covalent bond formation) (converted).
A short description of data set [5]: Cytotoxicity, cell counting kit-8 (CCK8) assay. The conditions noted are these: human, CC50, HEK293T cells. On the technique in general: Formazan colour is commonly taken as a measure of viable cells.
A further data set concerns HEK293T cells. The data set is described as follows: Cytotoxicity, cell counting kit-8 (CCK8) assay. The note with it: HEK293T cells, 24 h.
Data set [6] deals with T1, SARS-CoV-2 PL^pro. The data set is described as follows: cell-based. The note with it: HEK293T cells; for EC50: 48 h.
In data set [7] the target is T1, SARS-CoV-2 PL^pro. Type of data set: binding. The note with it: 40 μM protease, 200 μM compound; for Tm of SARS-CoV-2 PLpro incubated with compound: apo protease 43.3 °C.
For a further data set, the target named is SARS-CoV PL^pro (Severe acute respiratory syndrome coronavirus, UniProt P0C6X7). The experiment in a line: biochemical.

The values below come from publication PMC10218254 (International Journal of Molecular Sciences, 2023).

Like-named read-outs stand apart in the source and are kept apart here.

MERS-CoV PL^pro, sequence (K9N7C7 1552-1823 limits assumed): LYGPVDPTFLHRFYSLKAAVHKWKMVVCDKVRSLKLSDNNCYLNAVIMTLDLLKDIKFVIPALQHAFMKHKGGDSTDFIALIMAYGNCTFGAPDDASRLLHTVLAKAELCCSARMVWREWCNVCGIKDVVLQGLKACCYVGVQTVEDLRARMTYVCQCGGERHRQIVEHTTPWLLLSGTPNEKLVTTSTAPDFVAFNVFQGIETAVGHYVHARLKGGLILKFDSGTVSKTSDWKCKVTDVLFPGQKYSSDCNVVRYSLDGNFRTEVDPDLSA

For orientation: IC50 means the concentration needed to halve the response being measured. For the compound `COC(=O)/C=C/CNC(=O)CNC(=O)[C@H](CN)NC(=O)[C@H](CCc1nc2ccccc2s1)NC(C)=O` [VIR250], the IC50 at SARS-CoV-2 PL^pro [1] (read-out: IC50) was about 50 µM.

In the case of `COC(=O)/C=C/CNC(=O)CNC(=O)[C@H](CN)NC(=O)[C@H](CCc1ccc(O)cc1)NC(C)=O` [VIR251], the IC50 at SARS-CoV-2 PL^pro [1] is about 50 µM.

As usually defined, the kinact/KI is the second-order rate constant of inactivation. By Ki is commonly meant the equilibrium dissociation constant of an inhibitor or competing ligand from its target. The kinact is the rate constant of inactivation at saturating inhibitor. By CC50 is commonly meant the concentration at which the toxic effect on the cells reaches its halfway point. A high value points to better tolerance by the cells. One may read the EC50 as the midpoint of the concentration-response curve. The low end stands for greater potency, the high end for weaker potency. `COC(=O)/C=C/CNC(=O)CNC(=O)CNC(=O)C1CCN(C(C)c2cccc3ccccc23)CC1` (stereo not drawn) [compound 2, Methyl (E)-4-(2-(2-(1-(1-(Naphthalen-1-yl)ethyl)piperidine-4-carboxamido)acetamido)acetamido)but-2-enoate]: on SARS-CoV-2 PL^pro [2], the half-maximal inhibitory concentration (IC50) was found to be 0.46 µM. Further, the “change in inhibitory activities in the presence and absence of DTT” value on SARS-CoV-2 PL^pro [3] (4 mM DTT, varied concentrations) is reported as “no apparent change”. Further, on SARS-CoV-2 PL^pro [3] (RLRGG-AMC substrate), the “improvement in potency (IC50) compared to VIR251” value is on record as “about 100 fold”, the “improvement in potency (IC50) compared to compound 1” value is listed as about 5 fold, the “increase in potency (IC50) compared to positive control GRL0617” value was 2 fold and the IC50 turned out to be 0.46 µM. Besides, on MERS-CoV PL^pro, the half-inhibitory concentration (IC50) was over 100 µM and the “inhibitory activity towards MERS-CoV PLpro” value is reported as “basically ineffective”. Besides, at SARS-CoV-2 PL^pro [4], the inactivation efficiency (kinact/KI) is 160 M⁻¹ s⁻¹, the inhibition constant Ki was 5.32 µM and the kinact was 0.00085 s⁻¹. In addition, in data set [5], the half-maximal cytotoxic concentration (CC50) at 24 h was about 180 µM. In addition, the CC50 in the data set with HEK293T cells is about 180 µM. Moreover, on SARS-CoV-2 PL^pro [6], the “improvement in EC50 compared to GRL0617” value is recorded as ~ 4.4 fold and the EC50 turned out to be 3.61 µM. In addition, on SARS-CoV-2 PL^pro [7], the “Tm of SARS-CoV-2 PLpro incubated with compound” value amounted to 68.0 °C. Moreover, the 50% inhibitory concentration (IC50) against SARS-CoV PL^pro was found to be 0.39 µM.

For `COC(=O)/C=C/C(=O)NNC(=O)CCc1ccccc1C(=O)NC(C)c1cccc2ccccc12` (stereo not drawn) [compound 3, reference compound], the midpoint of cytotoxicity in [5], the CC50 at 24 h, lay at 58.3 ± 22.1 µM. Moreover, the half-maximal cytotoxic concentration (CC50) in the data set on HEK293T cells was 58.3 µM.

In turn, `COC(=O)/C=C/C(=O)NNC(=O)CNC(=O)CNC(=O)C1CCN(C(C)c2cccc3ccccc23)CC1` (stereo not drawn) [compound 4, Methyl (E)-4-(2-((1-(1-(Naphthalen-1-yl)ethyl)piperidine-4-carbonyl)glycylglycyl)hydrazinyl)-4-oxobut-2-enoate] had a 50% inhibitory concentration (IC50) against SARS-CoV-2 PL^pro [2] of 0.32 µM. The compound further returned a half-maximal inhibitory concentration (IC50) against SARS-CoV-2 PL^pro [3] (RLRGG-AMC substrate) of 0.23 µM. Besides, the “inhibitory potency higher than compound 2” value against SARS-CoV-2 PL^pro [3] (enzymatic inhibition assay) was ~ 1 fold. Moreover, at SARS-CoV-2 PL^pro [4], the kinact/KI is 265 M⁻¹ s⁻¹, the Ki amounted to 4.65 µM and the kinact was 0.00123 s⁻¹. The compound also yielded a CC50 at 24 h in data set [5] of over 200 µM. Also, at SARS-CoV-2 PL^pro [6], the “inhibitory effect in cell-based protease assay” value is recorded as “hardly has an inhibitory effect” and the EC50 is over 200 µM. Besides, the “Tm increase compared to apo protease” value at SARS-CoV-2 PL^pro [7] worked out at 15.1 °C.

Regarding GRL0617 [reference compound], the CC50 in the data set on HEK293T cells is over 200 µM. In addition, the “Tm of SARS-CoV-2 PLpro incubated with compound” value on SARS-CoV-2 PL^pro [7] turned out to be 50.4 °C.
